The values that follow come from US10842151B2, “Small molecule compound for enhancing plant stress resistance” (SHANGHAI INSTITUTES FOR BIOLOGICAL SCIENCES, CHINESE …, priority 2015, dated 2020).

In one test the test system is soybean Williams 82. Description: Soybean leaf transpiration experiment (thermal imaging). It is filed as in vivo. The protocol: After three weeks of continuous watering, 0.05% tween-20 and corresponding concentrations of DMSO (control)/compound (+)-ABA/0918/1127 were sprayed onto the plants in a single administration with an amount of 1.2 ml/pot. Images were taken daily using the FLIR A655sc thermal imaging camera at the same time before and after spraying. The Williams 82 ecotype was used in soybean leaf transpiration experiments for compounds 0604c, 0918 and 1127 and was long-day cultured at 26° C. After the plants grew and had 3 leaves in each of 3 groups, 0.05% tween-20 and 50 μM DMSO (control)/(+)-ABA/0604c/0918/1127 compounds were sprayed in a single administration with an amount of 4 ml/pot. Images were taken daily using the FLIR A655sc thermal imaging camera at the same time before and after spraying.
(§1) Leaf transpiration experiments of soybean and cotton for compound 0720B were carried out at 26° C. with long-day lighting. 16 days and 23 days after sowing, a solution containing 0.1% tween-20 and corresponding concentration of (+)-ABA, or 0720B compound or 0.1% Tween-20 and 0.05% DMSO (control) was sprayed in an amount of 4 ml/pot. Images were taken daily using the FLIR A655sc thermal imaging camera at the same time before and after spraying.

Test [1] has as its target T1, PYL2 + HAB1 (Arabidopsis thaliana, UniProt O80992).
T1 construct: made in house; host or cells: E. coli BL21 (DE3)
T1 sequence (O80992 14-188 limits assumed): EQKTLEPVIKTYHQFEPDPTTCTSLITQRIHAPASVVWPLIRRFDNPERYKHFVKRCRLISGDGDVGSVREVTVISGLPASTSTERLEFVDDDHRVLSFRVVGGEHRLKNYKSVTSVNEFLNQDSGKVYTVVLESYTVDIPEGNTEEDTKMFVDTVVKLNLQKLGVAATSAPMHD
T1 sequence (Q9CAJ0 172-511 partner limits assumed): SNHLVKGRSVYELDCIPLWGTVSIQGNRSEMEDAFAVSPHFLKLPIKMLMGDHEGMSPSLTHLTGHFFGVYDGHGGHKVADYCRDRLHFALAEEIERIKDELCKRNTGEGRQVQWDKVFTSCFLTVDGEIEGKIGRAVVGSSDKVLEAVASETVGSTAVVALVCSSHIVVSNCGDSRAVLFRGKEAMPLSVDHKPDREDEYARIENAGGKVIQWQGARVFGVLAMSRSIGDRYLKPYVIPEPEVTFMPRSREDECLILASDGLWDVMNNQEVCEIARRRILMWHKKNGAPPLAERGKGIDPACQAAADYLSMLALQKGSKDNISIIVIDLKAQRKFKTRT
Description: AlphaScreen experiment, PYL2 + HAB1. It is filed as binding. As to conditions: number in brackets; read-out: Half maximum effect concentration EC50 (PYL2 + HAB1). How it is done:
(§2) After incubating for 1.5 hours at room temperature in the dark, it was placed into an Envision Plate Reader (available from Perkin Elmer) under the programmed AlphaScreen procedure for readings.
A general note: Bead proximity is the source of the signal in Alpha formats.

The next test concerns soybean. Put plainly: Soil drought experiment, soybean. The format is in vivo. The protocol:
Only one plant was contained in each pot. All soybean plants were long-day cultured at 26° C. Watering was stopped after the plant had three leaves in each of three groups of leaves and the plants with consistent growth were selected for drought treatment. As for corn, watering was stopped during the small trumpet period for drought treatment. […] After a week, the watering was resumed. Soybeans and cotton used in leaf transpiration experiments for compound 0720B were also used for soil drought experiments. Each pot contained only one plant and was filled with the same weight of soil to reduce experimental errors. All of the soybean plants were grown at 26° C. for long-day culture. 16 days after seeding, watering was stopped and the plants with consistent growth were selected for drought treatment. […] Cotton drought experiments were similar to that of the soybean. 23 days after seeding, the watering was stopped, and the plants with consistent growth were selected for drought treatment. […] After 10 days of drought, the photos were taken.

Test [2] has as its target T1, PYL2 + HAB1. Description: HAB1 phosphatase activity assay with PYL2, SnRK2.6 phosphorylated polypeptide substrate. It is filed as biochemical. As to conditions: PYL2 receptor; same concentration as ABA. The protocol: (§3) HAB1 Phosphatase Activity Assay […] The reaction system was incubated at room temperature for 30 minutes, followed by a further reaction for 30 minutes after adding an 11-amono acid phosphorylated polypeptide as a substrate. The phosphorylated polypeptide consisting of amino acid 170-180 of SnRK2.6 protein kinase (sequence […]) was purchased from […] company, wherein phosphorylated […] was a known HAB1 dephosphorylation target site. After 30 minutes, chromogenic reagent (purchased from BioVision) was added and the absorbance at 650 nm was read on a microplate reader (Molecular Devices).

For test [3], the system named is PYR1/PYL1/PYL2/PYL7 + HAB1. Put plainly: AlphaScreen experiment, PYL receptor binding to HAB1. Set-up: species or system Arabidopsis. The conditions noted are these: AMX: PYR1/PYL1/PYL2/PYL7; 0720B: PYL2 receptor and PYL1 receptor. The protocol: as §2
Test [4] has as its system cotton. Put plainly: Cotton leaf transpiration experiment (thermal imaging). It is filed as in vivo. The conditions noted are these: 50 μM; after two days; vs DMSO. The protocol:
as §1

The test system of test [5] is PYR/PYL receptors (PYR1, PYL1, PYL2 and PYL7)-HAB1 complex. Put plainly: Broad spectrum experiment on PYR/PYL receptors (HAB1 phosphatase activity). The conditions noted are these: 1 μM; for binding ability with PYR1/PYL1/PYL2/PYL7 compared with ABA: FIG. 1, FIG. 13. The format is biochemical, Arabidopsis. How it is done:
as §3

Test [6] relates to cotton. Description: Soil drought experiment, cotton. The format is in vivo. The conditions noted are these: 50 μM every 4 days; after 10 days of drought. The protocol: Soybeans and cotton used in leaf transpiration experiments for compound 0720B were also used for soil drought experiments. Each pot contained only one plant and was filled with the same weight of soil to reduce experimental errors. All of the soybean plants were grown at 26° C. for long-day culture. 16 days after seeding, watering was stopped and the plants with consistent growth were selected for drought treatment. […] Cotton drought experiments were similar to that of the soybean. 23 days after seeding, the watering was stopped, and the plants with consistent growth were selected for drought treatment. […] After 10 days of drought, the photos were taken.

Another test deals with maize (corn). Description: Soil drought experiment, maize. The format is in vivo. As to conditions: 50 μM; a week of drought. The protocol: Only one plant was contained in each pot. All soybean plants were long-day cultured at 26° C. Watering was stopped after the plant had three leaves in each of three groups of leaves and the plants with consistent growth were selected for drought treatment. As for corn, watering was stopped during the small trumpet period for drought treatment. […] After a week, the watering was resumed.

Test [7] has as its system ABA-induced environmental stress-related gene expression. Put plainly: Gene expression analysis (fluorescence quantitative PCR). It is filed as in vivo, Arabidopsis thaliana (Col-0). The conditions noted are these: one day after treatment; ABA 10 μM. How it is done:
The whole plant or leaves were taken, and RNA extraction was carried out by using conventional methods. After reverse transcription, the fluorescence quantitative PCR was carried out. Triple biological samples were taken for each treatment which was performed twice. The ACT7 gene was used as a reference gene.

In test [8] the test system is soybean GmPYL3 and GmPYL6 + Arabidopsis AtHAB1. Put plainly: AlphaScreen experiment with soybean GmPYL receptors. It is filed as binding. The conditions noted are these: FIG. 9. The protocol:
as §2

The next test addresses T2, PYL7 + HAB1 (Arabidopsis thaliana, UniProt Q1ECF1).
T2 construct: made in house; host or cells: E. coli BL21 (DE3)
T2 sequence (Q1ECF1 1-211): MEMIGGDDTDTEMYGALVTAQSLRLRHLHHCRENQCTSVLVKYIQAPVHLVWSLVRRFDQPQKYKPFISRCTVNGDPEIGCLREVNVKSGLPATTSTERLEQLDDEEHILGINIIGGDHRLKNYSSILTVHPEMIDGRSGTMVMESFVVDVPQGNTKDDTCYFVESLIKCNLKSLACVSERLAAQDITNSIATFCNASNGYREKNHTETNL
T2 sequence (Q9CAJ0 172-511 partner limits assumed): T1 sequence (Q9CAJ0 172-511 partner limits assumed)
Put plainly: AlphaScreen experiment, PYL7 + HAB1. The format is binding. As to conditions: number in brackets; read-out: Half maximum effect concentration EC50 (PYL7 + HAB1). How it is done: as §2

The target in the next test is T3, PYR1 + HAB1 (Arabidopsis thaliana, UniProt O49686).
T3 sequence (O49686 1-191): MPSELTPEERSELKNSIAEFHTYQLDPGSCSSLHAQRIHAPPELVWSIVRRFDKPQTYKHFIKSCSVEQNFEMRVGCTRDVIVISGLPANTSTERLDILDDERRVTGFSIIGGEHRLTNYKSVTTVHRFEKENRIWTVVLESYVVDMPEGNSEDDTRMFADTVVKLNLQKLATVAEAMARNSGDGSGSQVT
T3 sequence (Q9CAJ0 172-511 partner): T1 sequence (Q9CAJ0 172-511 partner limits assumed)
Put plainly: AlphaScreen experiment, PYR1 + HAB1. The format is binding. The conditions noted are these: column 2; number in brackets; read-out: Half maximum effect concentration EC50 (PYR1 + HAB1). The protocol:
as §2

Test [9] deals with Arabidopsis thaliana Col-0 ecotype seeds. Description: Seed germination, Col-0. The format is in vivo. As to conditions: 1 μM. From the text:
(§4) Two lines of plant were sown simultaneously on a single medium of 6 cm diameter, with 15 seeds sown for each line and 4 replicates for each compound. […]

Test [10] deals with Arabidopsis Col-0 ecotype. Put plainly: Soil drought experiment, Arabidopsis. The format is in vivo, Arabidopsis thaliana. The protocol: Seeds of Arabidopsis Col-0 ecotype were sterilized with NaClO and then sown on ½ MS solid medium at 4° C. for 3 days of vernalization. After 6 days of growing, the well-grown seedlings having uniform size were selected and transferred into 8×7×6 cm^3 pots. Each pot was filled with the same weight of soil and the same number of plants (six plants) was planted to reduce experimental error. All the pots were subjected to a short-day culture at 22° C. After two weeks, watering was stopped for drought treatment. […] The position of the flowerpot was changed every day during the process of drought to reduce the error caused by environmental factors. During the whole drought period, the solution was sprayed twice in total and photos were recorded regularly. The watering was resumed in about three weeks.

Test [11] has as its system Arabidopsis ABA synthesis defective mutant aba2-1. It is filed as in vivo, Arabidopsis thaliana. The conditions noted are these: 5 μM sprayed; after 4 days; vs DMSO.
In test [12] the test system is pyr1;pyl1;pyl4 triple mutant seeds. Put plainly: Seed germination, PYR/PYL triple mutant. It is filed as in vivo, Arabidopsis thaliana. The conditions noted are these: 1 μM; six days after seeding.
Text: as §4

Regarding `CCCN1C(=O)CC(C)c2cc(NS(=O)(=O)Cc3c(F)c(F)c(C)c(F)c3F)ccc21` (stereo not drawn) [Compound 0720B], the leaf temperature entry in the test on soybean Williams 82 (one day after spraying, 10 μM, 20 μM or 50 μM) was “significantly higher than that of plants in DMSO-sprayed control and that of plants sprayed with 50 μM ABA”; with soybean Williams 82 (two days after spraying, 0720B 20 μM or 50 μM, ABA 50 μM) it was “significantly higher than that of the DMSO-sprayed control”; in the test with cotton [4], “significantly higher than that in plants sprayed with DMSO”. Further, the EC50 at PYL2 + HAB1 [1] worked out at 30 nM. Also, the growth after rewatering result in the test on soybean (10 μM, 20 μM or 50 μM every 3 days, rewatered 11 days after drought) is “significantly better than that of the plants sprayed with DMSO (control) and the plants sprayed with 50 μM ABA”. Further, the “inhibition of the dephosphorylation effect of HAB1 on SnRK2.6 phosphorylated polypeptide compared with ABA” value on PYL2 + HAB1 [2] was “significantly better than that of ABA at the same concentration”. Besides, in [3], the “PYL receptor binding affinity compared with ABA” value is recorded as “significantly superior to ABA”. In addition, the “binding ability with PYR1/PYL1/PYL2/PYL7 compared with ABA” value in [5] was “significantly higher than that of ABA”. In addition, the growth result with cotton [6] is “significantly better than that of the plants sprayed with DMSO (control) and the plants sprayed with 50 μM ABA”.

For `CCCN1C(=O)CCc2cc(NS(=O)(=O)Cc3ccc(C)c(F)c3F)ccc21` [Compound 0918], in the test on maize (corn), the survival after rewatering entry was “Most of the corn sprayed with compound 0918 survived after rewatering”. For the same molecule, the values for the EC50 at PYL2 + HAB1 [1], on PYL7 + HAB1 and at PYR1 + HAB1 were 30 nM, 20 nM and 20 nM, respectively. Also, the growth result in the test on soybean (50 μM, a week of drought, one month after rewatering) is “grew significantly better than the plants sprayed with DMSO (control) and sprayed with 50 μM ABA”. Further, the “expression level of relevant genes compared with ABA” value in test [7] is reported as “significantly higher than that in the plants treated with 10 μM ABA”. The “affinities for soybean GmPYL proteins compared with ABA” value in test [8] is “significantly higher affinities”. Moreover, the “inhibition effect on germination of Col-0 ecotype seeds compared with control compound” value in test [9] is given as “significantly better inhibition effect”. Besides, the “germination of Col-0 ecotype seeds” value in test [9] (six days after seeding) was “could still inhibit germination of Col-0 ecotype seeds”. The plant survival result in test [10] (5 μM sprayed, 18 days after drought) is given as “still survived”. In test [10] (same concentration, after 2 weeks of drought, FIG. 8c), the “drought resistance compared with compound with fewer halogen atoms (0604c)” value was “stronger drought resistance”. Also, the leaf temperature result in test [11] is “still higher than that in the control group”. The “binding to PYR/PYL receptors” value in test [5] is “could bind with PYR1/PYL1/PYL2/PYL3/PYL4/PYL5/PYL7/PYL10”. In addition, the “binding ability with PYR1/PYL1/PYL2/PYL7 compared with ABA” value in test [5] is recorded as “significantly higher than those of ABA”. In addition, in test [12], the “germination of pyr1;pyl1;pyl4 triple mutant seeds” value is listed as “could not inhibit germination of PYR/PYL triple mutant pyr1;pyl1;pyl4 seeds”.
